Test results as given in patent US7572438B2, “Mutant having uracil phosphoribosyl transferase activity” (Transgene S.A., priority 1998, dated 2009).

Columns and labels:
PANC-1 = assay: LD50 of 5-FC and 5-FU on adenovirus-infected PANC-1 cells (MOI 5); type: cell-based, human; conditions: PANC-1, mock-infected, 6 days
Description: (§1) The LD50 values for 5-FC and 5-FU are determined vis-a-vis the three human tumor cell lines infected with the different viruses (Ad null, Ad.CMV-FCY1, Ad.CMV-FUR1A1Δ105 and Ad.CMV-FCU1) or coinfected with the adenoviruses expressing the FCY1 and FUR1Δ105 genes. The cells are infected at an MOI of 5 and then cultured in the presence of different concentrations of 5-FC and 5-FU. After 6 days of culture, the viability of the cells is determined using trypan blue. The LD50 values listed in Table 6 are the means of four counts.

B16(F0) cells [1] = assay: Bystander effect: mixtures of untransfected and pCI-neoFCU1-transfected B16(F0) clones with 5-FC; type: cell-based, mouse; conditions: B16/B16 pCI-neoFCU1 100%/0%, 4 days
Description: These clone mixtures were then tested in the presence of different concentrations of 5-FC. Cell mortality (using trypan blue) is assessed after culturing for 4 days in the presence of 5-FC.

SK-BR-3 = assay: LD50 of 5-FC and 5-FU on adenovirus-infected SK-BR-3 cells (MOI 5); type: cell-based, human; conditions: SK-BR-3, mock-infected, 6 days
Description: as §1

B16(F0) cells [2] = assay: Sensitivity of transfected B16(F0) clones to 5-FC and 5-FU (LD50, trypan blue); type: cell-based, mouse; conditions: 6 days with drug
Description: The sensitivities of the different clones to 5-FC and 5-FU are also tested after incubating in the presence of the drugs for 6 days. The following values are the means of four counts (using trypan blue) of cell mortality.

SW480 = assay: LD50 of 5-FC and 5-FU on adenovirus-infected SW480 cells (MOI 5); type: cell-based, human; conditions: 6 days
Description: as §1

SMILES	LD50 (μM) 5-FC, Mock (PANC-1)	LD50 (μM) + 5-FC (B16(F0) cells [1]) [µM]	LD50 (μM) 5-FC, Mock (SK-BR-3) [µM]	LD50 for 5-FC, untransfected cells (B16(F0) cells [2]) [µM]	LD50 (μM) 5-FC, Mock (SW480) [µM]	LD50 (μM) 5-FU, Mock (PANC-1) [µM]	LD50 (μM) 5-FU, Mock (SK-BR-3) [µM]	LD50 (μM) 5-FU, Mock (SW480) [µM]
Nc1nc(=O)[nH]cc1F [5-FC, 5-fluorocytosine]	10,000 μM	5000	5000	1000	5000			
O=c1[nH]cc(F)c(=O)[nH]1 [5-FU, 5-fluorouracil]						0.3	0.1	0.5
